Assays:
Test in all cases: relative viability (nuclei count vs DMSO), 5 days (fraction); higher = more cells survive
Etoposide + Palbociclib = compound: COc1cc([C@@H]2c3cc4c(cc3[C@@H](O[C@@H]3O[C@@H]5CO[C@@H](C)O[C@H]5[C@H](O)[C@H]3O)[C@H]3COC(=O)[C@H]23)OCO4)cc(OC)c1O [Etoposide] + CC(=O)c1c(C)c2cnc(Nc3ccc(N4CCNCC4)cn3)nc2n(C2CCCC2)c1=O [Palbociclib] (partner 0.5 µM)
How it was run: (§1)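 Dosing by pin tool came one day after lung cancer cell lines were seeded in 1536-well plates, using either one drug or a fixed anchor-drug dose plus five library-drug doses (not always all listed) in √10 steps. After 5 days, nuclei were counted on 4× images. Relative viability is treated-well nuclei count divided by vehicle-well nuclei count, and values are medians of duplicate plates.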

Bleomycin + Lapatinib = compound: CC1=C(N=C(N=C1N)[C@H](CC(=O)N)NC[C@@H](C(=O)N)N)C(=O)N[C@@H]([C@H](C2=CN=CN2)OC3C(C(C(C(O3)CO)O)O)OC4C(C(C(C(O4)CO)O)OC(=O)N)O)C(=O)N[C@H](C)[C@H]([C@H](C)C(=O)N[C@@H]([C@@H](C)O)C(=O)NCCC5=NC(=CS5)C6=NC(=CS6)C(=O)NCCC[S+](C)C)O [Bleomycin] + CS(=O)(=O)CCNCc1ccc(-c2ccc3ncnc(Nc4ccc(OCc5cccc(F)c5)c(Cl)c4)c3c2)o1 [Lapatinib] (partner 2 µM); details: main component drawn
How it was run: as §1

Etoposide + Luminespib = compound: COc1cc([C@@H]2c3cc4c(cc3[C@@H](O[C@@H]3O[C@@H]5CO[C@@H](C)O[C@H]5[C@H](O)[C@H]3O)[C@H]3COC(=O)[C@H]23)OCO4)cc(OC)c1O [Etoposide] + CCNC(=O)c1noc(-c2cc(C(C)C)c(O)cc2O)c1-c1ccc(CN2CCOCC2)cc1 [Luminespib] (partner 0.01 µM)
How it was run: as §1

Etoposide + Phenformin = compound: COc1cc([C@@H]2c3cc4c(cc3[C@@H](O[C@@H]3O[C@@H]5CO[C@@H](C)O[C@H]5[C@H](O)[C@H]3O)[C@H]3COC(=O)[C@H]23)OCO4)cc(OC)c1O [Etoposide] + N=C(N)NC(=N)NCCc1ccccc1 [Phenformin] (partner 250 µM)
How it was run: as §1

| Cell Line | relative viability (Etoposide + Palbociclib; first compound 0.01 µM) | relative viability (Etoposide + Palbociclib; first compound 0.03162 µM) | relative viability (Etoposide + Palbociclib; first compound 0.1 µM) | relative viability (Etoposide + Palbociclib; first compound 0.3162 µM) | relative viability (Etoposide + Palbociclib; first compound 1 µM) | relative viability (Bleomycin + Lapatinib; first compound 0.01 µM) | relative viability (Bleomycin + Lapatinib; first compound 0.03162 µM) | relative viability (Bleomycin + Lapatinib; first compound 0.1 µM) | relative viability (Bleomycin + Lapatinib; first compound 0.3162 µM) | relative viability (Bleomycin + Lapatinib; first compound 1 µM) | relative viability (Etoposide + Luminespib; first compound 0.01 µM) | relative viability (Etoposide + Luminespib; first compound 0.03162 µM) | relative viability (Etoposide + Luminespib; first compound 0.1 µM) | relative viability (Etoposide + Luminespib; first compound 0.3162 µM) | relative viability (Etoposide + Luminespib; first compound 1 µM) | relative viability (Etoposide + Phenformin; first compound 0.01 µM) | relative viability (Etoposide + Phenformin; first compound 0.03162 µM) | relative viability (Etoposide + Phenformin; first compound 0.1 µM) | relative viability (Etoposide + Phenformin; first compound 0.3162 µM) | relative viability (Etoposide + Phenformin; first compound 1 µM) |
| --- | --- | --- | --- | --- | --- | --- | --- | --- | --- | --- | --- | --- | --- | --- | --- | --- | --- | --- | --- | --- |
| NCI-H1755 | 0.436 | 0.397 | 0.454 | 0.429 | 0.456 | 0.91 | 1.03 | 0.92 | 0.631 | 0.578 | 0.481 | 0.415 | 0.45 | 0.483 | 0.277 | 0.63 | 0.671 | 0.597 | 0.589 | 0.495 |
| NCI-H727 | 0.67 | 0.675 | 0.581 | 0.689 | 0.767 | 0.718 | 0.781 | 0.695 | 0.204 | 0.472 | 0.53 | 0.294 | – | 0.3 | 0.418 | 0.556 | 0.664 | – | 0.531 | 0.437 |
| HARA | 0.242 | 0.335 | 0.245 | 0.269 | 0.203 | 0.764 | 0.734 | 0.704 | 0.644 | 0.308 | 0.403 | 0.999 | 0.682 | 0.226 | 0.106 | 0.507 | 0.407 | 0.504 | 0.366 | 0.178 |
| NCI-H647 | 0.423 | 0.458 | 0.321 | 0.258 | 0.216 | 0.353 | 0.336 | 0.191 | 0.0899 | 0.0986 | 0.134 | 0.164 | 0.164 | 0.134 | 0.0949 | 0.386 | 0.592 | 0.509 | 0.245 | 0.094 |
| NCI-H2347 | 0.314 | 0.397 | 0.375 | 0.381 | 0.346 | 0.836 | 0.974 | 0.966 | 0.612 | 0.493 | 0.498 | 0.407 | 0.299 | 0.237 | 0.285 | 0.39 | 0.446 | 0.345 | 0.247 | 0.294 |
| LCLC-97TM1 | 0.243 | 0.248 | 0.169 | 0.165 | 0.121 | 0.264 | 0.288 | 0.151 | 0.168 | 0.093 | 0.788 | 0.78 | 0.465 | 0.175 | 0.154 | 0.454 | 0.487 | 0.439 | 0.328 | 0.184 |
| EPLC-272H | 0.359 | 0.284 | 0.326 | 0.339 | 0.304 | 0.586 | 0.812 | 0.369 | 0.205 | 0.109 | 0.185 | 0.238 | 0.207 | 0.265 | 0.12 | 0.281 | 0.308 | 0.267 | 0.263 | 0.226 |
| NCI-H1915 | 0.471 | 0.569 | 0.506 | 0.459 | 0.375 | 0.669 | 0.771 | 0.385 | 0.192 | 0.15 | 0.714 | 0.634 | 0.808 | 0.617 | 0.394 | 0.38 | 0.361 | 0.429 | 0.346 | 0.324 |
| NCI-H3122 | 0.218 | 0.219 | 0.164 | 0.182 | 0.165 | 0.931 | 0.996 | 0.842 | 0.654 | 0.528 | 0.072 | 0.0992 | 0.0664 | 0.116 | 0.076 | 0.351 | 0.382 | 0.377 | 0.281 | 0.197 |
| NCI-H2170 | 0.382 | 0.427 | – | 0.36 | 0.319 | 0.303 | 0.262 | 0.259 | 0.231 | 0.21 | 0.714 | 0.874 | 0.273 | 0.585 | 0.452 | 0.373 | 0.429 | 0.468 | 0.409 | 0.348 |
| NCI-H1395 | 0.625 | 0.595 | 0.555 | 0.638 | 0.545 | 0.965 | 0.841 | 0.711 | 0.417 | 0.397 | 0.713 | 0.539 | 0.607 | 0.54 | 0.415 | 0.464 | 0.415 | 0.473 | 0.441 | 0.425 |
| NCI-H358 | 0.132 | 0.148 | 0.131 | 0.104 | 0.0757 | 0.381 | 0.466 | 0.354 | 0.256 | 0.254 | 0.243 | 0.327 | 0.209 | 0.179 | 0.095 | 0.341 | 0.402 | 0.219 | 0.114 | 0.0696 |
| PC-14 | 0.447 | 0.594 | 0.652 | 0.289 | 0.125 | 0.302 | 0.244 | 0.222 | 0.096 | 0.0848 | 0.112 | 0.172 | 0.143 | 0.138 | 0.151 | 0.621 | 0.662 | 0.485 | 0.372 | 0.203 |
| CAL-12T | 0.346 | 0.505 | 0.299 | 0.306 | 0.285 | – | 0.557 | 0.454 | 0.218 | 0.21 | 0.28 | 0.531 | 0.212 | 0.287 | 0.348 | 0.594 | 0.612 | 0.586 | 0.409 | 0.221 |

Source: the supplement of paper PMC10307832
